These results are taken from patent US4946964A, “Photographic compounds” (Polaroid Corporation, priority 1987, dated 1990).

Data set [1] in a line: release kinetics: t1/2 for cleavage with release of the PHOTO moiety in alkaline solution. It counts as physicochemical. As to conditions: 1×10^-4 molar, 30% acetonitrile/0.25N aqueous potassium hydroxide, 22°+0.1° C., 100 µM. From the text: The rate of release of the PHOTO moiety is dependent upon a number of factors. […] The release rate is also dependent upon the hydroxyl ion concentration of the alkaline medium. […] The rate of release is also temperature dependent, that is, the rate increases as the temperature at which processing of the film unit is effected increases. Thus, where PHOTO is a photographic reagent residue for example, the compounds which are utilized according to the invention can provide more uniform sensitometry for the film units of the invention over a wide temperature range of processing. In other words, the sensitometry of such film units can be less temperature dependent than would otherwise be the case.
The release kinetics of the compounds of the invention vary over a wide range. The t1/2 times in solution, i.e., the time required for one-half of the material to undergo cleavage with release of the PHOTO moiety, for some of the compounds illustrated above are shown in Table I. The values were obtained using 1×10^-4 molar concentrations in 30% acetonitrile/0.25N aqueous potassium hydroxide solution at a temperature of 22°+0.1° C.

A short description of data set [2]: Arrhenius activation energy (Ea) of release of the PHOTO moiety. It counts as physicochemical. Conditions: log of observed rate constant vs 1/T (° K.). The method, then: The rate at which the release reaction increases with temperature is a function of the activation energy. For example, for an increase in temperature from 20° C. to 30° C., it hs been calculated that the reaction rate will increase by a factor of 2 when Ea is 12.2, by a factor of about 3 when Ea is 19.3, by a factor of about 4 when Ea is 24.4 and by a factor of about 5 when Ea is 28.3. […] Typically, for such release reactions with other compounds, when the room temperature release rate is relatively fast, the activation energy tends to be about 10. Accordingly, it is possible to select, according to the invention, for a particular photographic system a compound which has a desired release rate at room temperature, a much slower release rate at lower temperatures and a much higher release rate at higher temperatures.
The Arrhenius activation energy (Ea) was calculated by plotting the log of the observed rate constant vs 1/T (° K.) for each compound.

As to `ON=C(CSc1nnnn1-c1ccc(O)cc1)CSc1nnnn1-c1ccc(O)cc1` [Compound I], the t1/2 in data set [1] was 51.1 s. Further, in data set [2], the “Arrhenius activation energy (Ea)” value was 21.8 kcal/mol.

On to `ON=C(CSc1nnnn1-c1ccccc1)CSc1nnnn1-c1ccccc1` [III], for which the t1/2 in data set [1] is 8.9 s.

With `CC(CSc1nnnn1-c1ccccc1)=NO` [IX], in data set [1], the t1/2 was 22.5 s. Further, the “Arrhenius activation energy (Ea)” value in data set [2] came to 26.5 kcal/mol.

Consider `ON=CCSc1nnnn1-c1ccccc1` [VIII], for which the t1/2 worked out at 49.1 s in data set [1] and 1020.0 s in data set [1] (syn isomer).

In data set [1], `ON=C(CSc1nnnn1-c1ccccc1)c1ccccc1` [VII] yielded a t1/2 of 4 to 6 s.

In data set [1], `CC(CSc1nnnn1-c1ccc(C(C)=NO)cc1)=NO` [VI] came in with a t1/2 of 28.9 s.

The compound `CC(CSc1nnnn1-c1ccc(O)cc1)=NO` [V] showed a t1/2 in data set [1] of 40.5 s.

`NC(CSc1nnnn1-c1ccccc1)=NO` [XIII] displayed a t1/2 in data set [1] of 546.0 s.

As to `Cc1ccc(S(=O)(=O)NN=C(CSc2nnnn2-c2ccccc2)c2ccccc2)cc1` [XII], the t1/2 in data set [1] was 165.0 s.

As to `CS(=O)(=O)Nc1ccc(C(CSc2nnnn2-c2ccccc2)=NO)cc1` [XI], the t1/2 in data set [1] is 7.6 s.

Turning to `COc1ccc(C(CSc2nnnn2-c2ccccc2)=NO)cc1` [X], the t1/2 in data set [1] stood at 4.3 s. Further, the “Arrhenius activation energy (Ea)” value in data set [2] stood at 21.9 kcal/mol.
